US8569336B2, “Compounds for the treatment of inflammatory disorders” (priority 2008, dated 2013)
Where two headings read alike, the source gives them in different places.

Columns and labels:
[1] = target: T1, purified catalytic domain of recombinant human TACE (rhTACEc) (Homo sapiens, UniProt P78536, N452Q/S266A); assay: TACE kinetic assay: cleavage of internally quenched peptide substrate TNF-FRET 2 (Ki); format: biochemical; settings: TNF-FRET 2 substrate
T1 construct: 6xHis (C); made in house; host or cells: baculovirus/Hi5 insect cells

[2] = test system: TNF-α production from human whole blood; assay: Inhibition of TNF-α production from human whole blood (hWBA), LPS stimulated, ELISA; format: cell-based; settings: Homo sapiens, TNF-α by ELISA, read-out: hWBA (IC50)
[3] = Area under the curve determinations of plasma levels in rats (rrAUC), oral 10 mg/kg; format: in vivo; settings: rat, read-out: RR AUC (rapid rat AUC, rrAUC)
[4] = LPS-stimulated human whole blood
[5] = 3.5 h, human whole blood diluted 1:1, LPS stimulated, 3.5 h
[6] = human whole blood diluted 1:1, LPS stimulated
[7] = plasma, blood collected 0.5-6 h post-dosing

T1 sequence (P78536 215-477 S266A/N452Q): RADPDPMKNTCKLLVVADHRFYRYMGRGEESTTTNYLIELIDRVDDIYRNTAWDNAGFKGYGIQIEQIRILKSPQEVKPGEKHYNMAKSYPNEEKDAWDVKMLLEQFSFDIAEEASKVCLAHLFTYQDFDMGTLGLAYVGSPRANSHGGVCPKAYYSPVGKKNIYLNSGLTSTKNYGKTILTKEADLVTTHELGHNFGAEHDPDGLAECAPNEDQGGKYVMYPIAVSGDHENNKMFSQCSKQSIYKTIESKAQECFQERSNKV

Structure (SMILES) | Ki ([1]; read-out: Ki) [µM] | IC50 [2, 4] [µM] | AUC ([3]; plasma 0.5-6 h) [µM·h] | Ki ([1]; Ki) [µM] | IC50 [2, 5] [µM] | AUC ([3]; plasma 0.5-6 h post-dosing) [µM·h] | IC50 [2, 6] [µM] | AUC [3, 7] [µM·h]
COc1ccc2c(c1F)C(=O)N(C[C@@]1(c3cc4cc([C@@]5(C)NC(=O)NC5=O)c(F)cc4o3)NC(=O)NC1=O)C2 (single isomer, unassigned) [Compound 1326] | 0.00063 | 0.156 | 1.04 |  |  |  |  | 
COc1ccc2c(c1)C(=O)N(C[C@@]1(c3cc4nc(-n5cccn5)ccc4o3)NC(=O)NC1=O)C2 [Compound 2165] |  |  |  | 0.000405 | 1.37 | 21 |  | 
COc1ccc2c(c1F)C(=O)N(C[C@@]1(c3cc4nc(N5CCC(OC)(OC)CC5)ccc4o3)NC(=O)NC1=O)C2 [Compound 1715] | 0.00279 | 0.48 | 0.199 |  |  |  |  | 
COc1ccc2c(c1)C(=O)N(C[C@@]1(c3cc4cc(-c5ccccc5F)ncc4o3)NC(=O)NC1=O)C2 [Compound 2240] | 0.000714 |  |  |  | 3.64 | 12.8 |  | 
CCc1cc2oc([C@]3(CN4Cc5ccc(OC)cc5C4=O)NC(=O)NC3=O)cc2cn1 [Compound 2290] | 0.000264 |  |  |  |  |  | 0.643 | 20.3
COc1ccc2c(c1)C(=O)N(C[C@@]1(c3cn4cccnc4n3)NC(=O)NC1=O)C2 [Compound 750] |  | 0.705 | 0.32 | 0.00191 |  |  |  | 
COc1ccc2c(c1)C(=O)N(C[C@@]1(c3cc4c(C#N)nccc4o3)NC(=O)NC1=O)C2 [Compound 323] |  | 1.24 | 0.485 | 0.0007 |  |  |  | 
COc1ccc2c(c1F)C(=O)N(C[C@@]1(c3cc4nc(-c5ccc(N)nc5)c(F)cc4o3)NC(=O)NC1=O)C2 [Compound 1318] | 0.00036 | 0.087 | 0.863 |  |  |  |  | 
COc1ccc2c(c1)C(=O)N(C[C@@]1(c3cc4cc(-c5ccnc(N)n5)ccc4o3)NC(=O)NC1=O)C2 [Compound 2245] | 0.000456 |  |  |  | 1.06 | 6.03 |  | 
COc1ccc2c(c1)C(=O)N(C[C@@]1(c3cc4nc(Nc5cccnc5)ccc4o3)NC(=O)NC1=O)C2 [Compound 2130] |  |  |  | 0.000629 | 0.163 | 0.072 |  | 
COc1ccc2c(c1)C(=O)N(C[C@@]1(c3cc4c(Cl)nccc4o3)NC(=O)NC1=O)C2 [Compound 2278] | 0.000637 |  |  |  | 0.26 | 12.1 |  | 
COc1ccc2c(c1F)C(=O)N(C[C@@]1(c3cc4cc5c(c(F)c4o3)C(=O)N(C)C5)NC(=O)NC1=O)C2 [Compound 2502] | 0.00069 |  |  |  |  |  | 0.381 | 3.12
COc1ccc2c(c1)C(=O)N(C[C@@]1(c3cc4nc(N5CC[C@@H](O)C5)ccc4o3)NC(=O)NC1=O)C2 [Compound 2166] | 0.000276 |  |  |  | 0.141 | 0.6 |  | 
COc1ccc2c(c1F)C(=O)N(C[C@@]1(c3cc4nc(N5C(=O)CCC5C)ccc4o3)NC(=O)NC1=O)C2 (stereo partly drawn) [Compound 1510] | 0.0004 | 0.263 | 5.19 |  |  |  |  | 
COc1ccc2c(c1F)C(=O)N(C[C@@]1(c3cc4cc(C5(C)NC(=O)NC5=O)cnc4o3)NC(=O)NC1=O)C2 (stereo partly drawn) [Compound 504] | 0.000758 | 0.239 | 3.66 |  |  |  |  | 
COc1ccc2c(c1)C(=O)N(C[C@@]1(c3cc4nc(N5CCCC5=O)ccc4o3)NC(=O)NC1=O)C2 [Compound 2171] | 0.00067 |  |  |  | 0.487 | 9.1 |  | 
COc1ccc2c(c1F)C(=O)N(C[C@@]1(c3cc4nc(Nc5cncc(F)c5)ccc4o3)NC(=O)NC1=O)C2 [Compound 1733] | 0.00071 | 0.454 | 0.904 |  |  |  |  | 
COc1ccc2c(c1)C(=O)N(C[C@@]1(c3cc4nc(N5C[C@@H](O)CC5=O)ccc4o3)NC(=O)NC1=O)C2 [Compound 2154] | 0.000645 |  |  |  | 0.125 | 0.393 |  | 
COc1ccc2c(c1)C(=O)N(C[C@@]1(c3cc4nc(N5CCN(C)CC5)ccc4o3)NC(=O)NC1=O)C2 [Compound 2108] |  |  |  | 0.000613 | 0.15 | 0.43 |  | 
COc1ccc2c(c1)C(=O)N(C[C@@]1(c3cc4c5c(ccc4o3)CNC5=O)NC(=O)NC1=O)C2 [Compound 2503] | 0.00036 |  |  |  |  |  | 0.17 | 0.304
